Reference: ChEMBL document CHEMBL3792311, “In vitro and in vivo activity of ML302F: a thioenolate inhibitor of VIM-subfamily metallo -lactamases” (Medchemcomm, 2016)
The source made the active and inactive calls. The calls are words filed in the database; no cut-off is given here.

How the values were obtained:
[1] = tested on: Klebsiella oxytoca; experiment: Potentiation of meropenem-induced antibacterial activity against VIM4 carbapenemase producing multidrug-resistant Klebsiella oxytoca 126 clinical isolate assessed as MIC of meropenem at 1:8 meropenem:compound ratio by broth microtiter dilution method; type: functional
[2] = tested on: Klebsiella pneumoniae; experiment: Potentiation of meropenem-induced antibacterial activity against VIM4 carbapenemase producing multidrug-resistant Klebsiella pneumoniae 128 clinical isolate assessed as MIC of meropenem at 1:8 meropenem:compound ratio by broth microtiter dilution method; type: functional
[3] = tested on: Klebsiella pneumoniae; experiment: Potentiation of meropenem-induced antibacterial activity against VIM1 carbapenemase producing multidrug-resistant Klebsiella pneumoniae 177 clinical isolate at 1:8 meropenem:compound ratio by checkerboard method; type: functional
[4] = tested on: Providencia stuartii; experiment: Potentiation of meropenem-induced antibacterial activity against VIM1 carbapenemase producing multidrug-resistant Providencia stuartii 70 clinical isolate at 1:8 meropenem:compound ratio by checkerboard method; type: functional
[5] = tested on: Klebsiella pneumoniae; experiment: Potentiation of meropenem-induced antibacterial activity against VIM1 carbapenemase producing multidrug-resistant Klebsiella pneumoniae 177 clinical isolate assessed as MIC of meropenem at 1:8 meropenem:compound ratio by broth microtiter dilution method; type: functional
[6] = tested on: Pseudomonas aeruginosa; experiment: Potentiation of meropenem-induced antibacterial activity against VIM2 carbapenemase producing multidrug-resistant Pseudomonas aeruginosa 30 clinical isolate assessed as MIC of meropenem at 1:8 meropenem:compound ratio by broth microtiter dilution method; type: functional
[7] = tested on: Pseudomonas aeruginosa; experiment: Potentiation of meropenem-induced antibacterial activity against VIM2 carbapenemase producing multidrug-resistant Pseudomonas aeruginosa 47 clinical isolate assessed as MIC of meropenem at 1:8 meropenem:compound ratio by broth microtiter dilution method; type: functional
[8] = tested on: Pseudomonas aeruginosa; experiment: Potentiation of meropenem-induced antibacterial activity against VIM2 carbapenemase producing multidrug-resistant Pseudomonas aeruginosa 50 clinical isolate assessed as MIC of meropenem at 1:8 meropenem:compound ratio by broth microtiter dilution method; type: functional
[9] = tested on: Pseudomonas aeruginosa; experiment: Potentiation of meropenem-induced antibacterial activity against VIM2 carbapenemase producing multidrug-resistant Pseudomonas aeruginosa GR57 clinical isolate assessed as MIC of meropenem at 1:8 meropenem:compound ratio by broth microtiter dilution method; type: functional
[10] = tested on: Pseudomonas aeruginosa; experiment: Potentiation of meropenem-induced antibacterial activity against VIM2 carbapenemase producing multidrug-resistant Pseudomonas aeruginosa GR58 clinical isolate assessed as MIC of meropenem at 1:8 meropenem:compound ratio by broth microtiter dilution method; type: functional
[11] = tested on: Pseudomonas aeruginosa; experiment: Potentiation of meropenem-induced antibacterial activity against VIM2 carbapenemase producing multidrug-resistant Pseudomonas aeruginosa 3 clinical isolate assessed as MIC of meropenem at 1:8 meropenem:compound ratio by broth microtiter dilution method; type: functional
[12] = tested on: Pseudomonas aeruginosa; experiment: Potentiation of meropenem-induced antibacterial activity against VIM2 carbapenemase producing multidrug-resistant Pseudomonas aeruginosa 9 clinical isolate assessed as MIC of meropenem at 1:8 meropenem:compound ratio by broth microtiter dilution method; type: functional
[13] = tested on: Pseudomonas aeruginosa; experiment: Potentiation of meropenem-induced antibacterial activity against VIM2 carbapenemase producing multidrug-resistant Pseudomonas aeruginosa 12 clinical isolate assessed as MIC of meropenem at 1:8 meropenem:compound ratio by broth microtiter dilution method; type: functional
[14] = tested on: Pseudomonas aeruginosa; experiment: Potentiation of meropenem-induced antibacterial activity against VIM2 carbapenemase producing multidrug-resistant Pseudomonas aeruginosa 13 clinical isolate assessed as MIC of meropenem at 1:8 meropenem:compound ratio by broth microtiter dilution method; type: functional
[15] = Toxicity in Galleria mellonella larvae assessed as survival rate up to 80 mg/kg measured at 96 hrs; type: organism-based; conditions: in vivo
[16] = tested on: Pseudomonas aeruginosa; experiment: Potentiation of meropenem-induced antibacterial activity against VIM2 carbapenemase producing multidrug-resistant Pseudomonas aeruginosa GR62 clinical isolate at 1:8 meropenem:compound ratio by checkerboard method; type: functional
[17] = tested on: Pseudomonas aeruginosa; experiment: Potentiation of meropenem-induced antibacterial activity against VIM2 carbapenemase producing multidrug-resistant Pseudomonas aeruginosa GR62 clinical isolate assessed as MIC of meropenem at 1:8 meropenem:compound ratio by broth microtiter dilution method; type: functional
[18] = tested on: Klebsiella pneumoniae; experiment: Antibacterial activity against VIM4 carbapenemase producing multidrug-resistant Klebsiella pneumoniae 120 clinical isolate infected in Galleria mellonella larvae assessed as survival rate at 4.8 mg/kg measured at 96 hrs; type: functional, organism-based
[19] = tested on: Pseudomonas aeruginosa; experiment: Potentiation of meropenem-induced antibacterial activity against VIM2 carbapenemase producing multidrug-resistant Pseudomonas aeruginosa GR57 clinical isolate infected in Galleria mellonella larvae assessed as survival rate at 4.8 mg/kg measured at 96 hrs; type: functional; conditions: GR57, 96 h
[20] = tested on: Pseudomonas aeruginosa; experiment: Antibacterial activity against VIM2 carbapenemase producing multidrug-resistant Pseudomonas aeruginosa GR57 clinical isolate infected in Galleria mellonella larvae assessed as survival rate at 4.8 mg/kg measured at 96 hrs; type: functional, organism-based
[21] = tested on: Klebsiella pneumoniae; experiment: Antibacterial activity against VIM1 carbapenemase producing multidrug-resistant Klebsiella pneumoniae 177 clinical isolate up to 512 mg/L by broth microtiter dilution method; type: functional, organism-based
[22] = tested on: Pseudomonas aeruginosa; experiment: Antibacterial activity against VIM2 carbapenemase producing multidrug-resistant Pseudomonas aeruginosa 47 clinical isolate up to 512 mg/L by broth microtiter dilution method; type: functional, organism-based
[23] = tested on: Pseudomonas aeruginosa; experiment: Antibacterial activity against VIM2 carbapenemase producing multidrug-resistant Pseudomonas aeruginosa 3 clinical isolate up to 512 mg/L by broth microtiter dilution method; type: functional, organism-based
[24] = tested on: Enterobacter cloacae; experiment: Antibacterial activity against VIM4 carbapenemase producing multidrug-resistant Enterobacter cloacae 102 clinical isolate up to 512 mg/L by broth microtiter dilution method; type: functional, organism-based
[25] = tested on: Escherichia coli; experiment: Antibacterial activity against VIM4 carbapenemase producing multidrug-resistant Escherichia coli 98 clinical isolate up to 512 mg/L by broth microtiter dilution method; type: functional, organism-based
[26] = tested on: Klebsiella oxytoca; experiment: Antibacterial activity against VIM4 carbapenemase producing multidrug-resistant Klebsiella oxytoca 95 clinical isolate up to 512 mg/L by broth microtiter dilution method; type: functional, organism-based
[27] = tested on: Klebsiella pneumoniae; experiment: Antibacterial activity against VIM4 carbapenemase producing multidrug-resistant Klebsiella pneumoniae 196 clinical isolate up to 512 mg/L by broth microtiter dilution method; type: functional, organism-based
[28] = tested on: Pseudomonas aeruginosa; experiment: Antibacterial activity against VIM2 carbapenemase producing multidrug-resistant Pseudomonas aeruginosa GR62 clinical isolate up to 512 mg/L by broth microtiter dilution method; type: functional, organism-based
[29] = tested on: Pseudomonas aeruginosa; experiment: Potentiation of meropenem-induced antibacterial activity against VIM2 carbapenemase producing multidrug-resistant Pseudomonas aeruginosa GR58 clinical isolate at 1:8 meropenem:compound ratio by checkerboard method; type: functional
[30] = tested on: Pseudomonas aeruginosa; experiment: Potentiation of meropenem-induced antibacterial activity against VIM2 carbapenemase producing multidrug-resistant Pseudomonas aeruginosa 3 clinical isolate at 1:8 meropenem:compound ratio by checkerboard method; type: functional
[31] = tested on: Pseudomonas aeruginosa; experiment: Potentiation of meropenem-induced antibacterial activity against VIM2 carbapenemase producing multidrug-resistant Pseudomonas aeruginosa 11 clinical isolate at 1:8 meropenem:compound ratio by checkerboard method; type: functional
[32] = tested on: Pseudomonas aeruginosa; experiment: Potentiation of meropenem-induced antibacterial activity against VIM2 carbapenemase producing multidrug-resistant Pseudomonas aeruginosa 13 clinical isolate at 1:8 meropenem:compound ratio by checkerboard method; type: functional
[33] = tested on: Pseudomonas aeruginosa; experiment: Potentiation of meropenem-induced antibacterial activity against VIM2 carbapenemase producing multidrug-resistant Pseudomonas aeruginosa 14 clinical isolate at 1:8 meropenem:compound ratio by checkerboard method; type: functional
[34] = tested on: Enterobacter cloacae; experiment: Potentiation of meropenem-induced antibacterial activity against VIM4 carbapenemase producing multidrug-resistant Enterobacter cloacae 102 clinical isolate at 1:8 meropenem:compound ratio by checkerboard method; type: functional
[35] = tested on: Klebsiella oxytoca; experiment: Potentiation of meropenem-induced antibacterial activity against VIM4 carbapenemase producing multidrug-resistant Klebsiella oxytoca 95 clinical isolate at 1:8 meropenem:compound ratio by checkerboard method; type: functional

O=C(O)/C(S)=C/c1c(Cl)ccc(Cl)c1Cl
MIC [1]: 4 µg/mL
MIC [2]: 1 µg/mL
fractional inhibitory concentration index (FICI) [3]: 1.02
fractional inhibitory concentration index (FICI) [4]: 0.14
MIC [5]: 1 µg/mL
MIC [6]: 8 µg/mL
MIC [7]: 1 µg/mL
MIC [8]: 8 µg/mL
MIC [9]: 4 µg/mL
MIC [10]: 8 µg/mL
MIC [11]: 8 µg/mL
MIC [12]: 16 µg/mL
MIC [13]: 32 µg/mL
MIC [14]: 16 µg/mL
survival at 96 h [15]: 100%
fractional inhibitory concentration index (FICI) [16]: 0.38
MIC [17]: 8 µg/mL
Activity [18]: Active
survival at 4.8 mg/kg [19]: 81%
Activity [20]: Active
Activity [21]: inactive
Activity [22]: inactive
Activity [23]: inactive
Activity [24]: inactive
Activity [25]: inactive
Activity [26]: inactive
Activity [27]: inactive
Activity [28]: inactive
fractional inhibitory concentration index (FICI) [29]: 0.38
fractional inhibitory concentration index (FICI) [30]: 0.25
fractional inhibitory concentration index (FICI) [31]: 0.09
fractional inhibitory concentration index (FICI) [32]: 0.75
fractional inhibitory concentration index (FICI) [33]: 0.06
fractional inhibitory concentration index (FICI) [34]: 0.19
fractional inhibitory concentration index (FICI) [35]: 0.38
